Assay: xn = mol fraction of the nth substance listed
Settings: 101 kPa, Liquid; for speed of sound: Frequency=2 MHz, Linear variable-path acoustic interferometer; for viscosity: Oscillating disk viscometry; for mass density: Vibrating tube method

C[NH+](C)C.O=S(=O)([O-])O [trimethylammonium hydrogen sulfate] + C[S+](C)[O-]
Settings	mass density [kg/m3]	speed of sound [m/s]	viscosity [mPa·s]
298.15 K, x1 = 0.013	1102.89	1498	2.07
298.15 K, x1 = 0.0356	1115.76	1499	2.23
298.15 K, x1 = 0.0539	1125.92	1501	2.36
298.15 K, x1 = 0.0982	1149.81	1504	2.62
298.15 K, x1 = 0.1259	1164.24	1507	2.75
298.15 K, x1 = 0.1608	1181.78	1511	2.91
298.15 K, x1 = 0.1982	1199.92	1514	3.09
298.15 K, x1 = 0.2422	1220.26	1519	3.3
298.15 K, x1 = 0.2956	1243.91	1522	3.52
298.15 K, x1 = 0.3855	1281.02	1528	3.84
298.15 K, x1 = 0.4611	1309.82	1533	4.07
298.15 K, x1 = 0.545	1339.48	1536	4.3
298.15 K, x1 = 0.6387	1370.13	1542	4.51
298.15 K, x1 = 0.7076	1391.08	1546	4.64
298.15 K, x1 = 0.7823	1412.52	1548	4.78
298.15 K, x1 = 0.8444	1429.25	1552	4.86
298.15 K, x1 = 0.907	1445.39	1556	4.95
298.15 K, x1 = 0.9524	1456.38	1559	5.02
298.15 K, x1 = 1	1467.58	1564	5.1
303.15 K, x1 = 0.013	1099.96	1475	1.89
303.15 K, x1 = 0.0356	1112.84	1477	2.03
303.15 K, x1 = 0.0539	1122.95	1479	2.15
303.15 K, x1 = 0.0982	1146.81	1485	2.39
303.15 K, x1 = 0.1259	1161.18	1488	2.54
303.15 K, x1 = 0.1608	1178.69	1492	2.69
303.15 K, x1 = 0.1982	1196.87	1496	2.85
303.15 K, x1 = 0.2422	1217.02	1501	3.02
303.15 K, x1 = 0.2956	1240.65	1506	3.22
303.15 K, x1 = 0.3855	1277.68	1514	3.51
303.15 K, x1 = 0.4611	1306.38	1522	3.71
303.15 K, x1 = 0.545	1336.01	1528	3.88
303.15 K, x1 = 0.6387	1366.49	1532	4.05
303.15 K, x1 = 0.7076	1387.36	1538	4.15
303.15 K, x1 = 0.7823	1408.73	1540	4.26
303.15 K, x1 = 0.8444	1425.42	1545	4.32
303.15 K, x1 = 0.907	1441.51	1551	4.38
303.15 K, x1 = 0.9524	1452.45	1556	4.43
303.15 K, x1 = 1	1463.57	1560	4.48
308.15 K, x1 = 0.013	1093.72	1462	1.75
308.15 K, x1 = 0.0356	1106.81	1466	1.88
308.15 K, x1 = 0.0539	1116.99	1469	1.99
308.15 K, x1 = 0.0982	1141.18	1476	2.23
308.15 K, x1 = 0.1259	1155.67	1478	2.35
308.15 K, x1 = 0.1608	1173.53	1484	2.51
308.15 K, x1 = 0.1982	1191.94	1490	2.67
308.15 K, x1 = 0.2422	1212.56	1494	2.82
308.15 K, x1 = 0.2956	1236.49	1500	3
308.15 K, x1 = 0.3855	1274.01	1510	3.24
308.15 K, x1 = 0.4611	1303.22	1516	3.41
308.15 K, x1 = 0.545	1333.32	1524	3.54
308.15 K, x1 = 0.6387	1364.4	1530	3.68
308.15 K, x1 = 0.7076	1385.63	1534	3.73
308.15 K, x1 = 0.7823	1407.49	1538	3.81
308.15 K, x1 = 0.8444	1424.52	1544	3.85
308.15 K, x1 = 0.907	1440.98	1547	3.88
308.15 K, x1 = 0.9524	1452.15	1552	3.92
308.15 K, x1 = 1	1463.5	1556	3.94
313.15 K, x1 = 0.013	1089.1	1447	1.64
313.15 K, x1 = 0.0356	1102.07	1449	1.75
313.15 K, x1 = 0.0539	1112.21	1452	1.85
313.15 K, x1 = 0.0982	1136.31	1460	2.06
313.15 K, x1 = 0.1259	1150.73	1464	2.17
313.15 K, x1 = 0.1608	1168.35	1471	2.31
313.15 K, x1 = 0.1982	1186.62	1476	2.45
313.15 K, x1 = 0.2422	1207.12	1483	2.56
313.15 K, x1 = 0.2956	1230.97	1490	2.7
313.15 K, x1 = 0.3855	1268.16	1501	2.88
313.15 K, x1 = 0.4611	1297.1	1510	3
313.15 K, x1 = 0.545	1326.92	1516	3.08
313.15 K, x1 = 0.6387	1357.69	1525	3.14
313.15 K, x1 = 0.7076	1378.66	1530	3.16
313.15 K, x1 = 0.7823	1400.24	1536	3.18
313.15 K, x1 = 0.8444	1417.09	1540	3.18
313.15 K, x1 = 0.907	1433.37	1545	3.18
313.15 K, x1 = 0.9524	1444.43	1549	3.17
313.15 K, x1 = 1	1455.63	1552	3.16

CC(=O)[O-].C[NH+](C)C [trimethylammonium acetate] + C[S+](C)[O-]
Settings	mass density [kg/m3]	speed of sound [m/s]	viscosity [mPa·s]
298.15 K, x1 = 0.0159	1094.86	1497	2.03
298.15 K, x1 = 0.0656	1093.33	1501	2.16
298.15 K, x1 = 0.1182	1091.46	1505	2.29
298.15 K, x1 = 0.1693	1089.27	1509	2.41
298.15 K, x1 = 0.2333	1086.77	1513	2.55
298.15 K, x1 = 0.2857	1084.45	1517	2.66
298.15 K, x1 = 0.3408	1081.92	1521	2.77
298.15 K, x1 = 0.3877	1079.63	1524	2.84
298.15 K, x1 = 0.4358	1077.39	1527	2.91
298.15 K, x1 = 0.5129	1073.63	1532	3
298.15 K, x1 = 0.5506	1071.66	1534	3.03
298.15 K, x1 = 0.5959	1069.68	1536	3.05
298.15 K, x1 = 0.6852	1065.62	1540	3.08
298.15 K, x1 = 0.7487	1062.84	1542	3.06
298.15 K, x1 = 0.8156	1060.15	1543	3.01
298.15 K, x1 = 0.8651	1058.27	1544	2.97
298.15 K, x1 = 0.9231	1056.26	1544	2.89
298.15 K, x1 = 0.961	1055.02	1544	2.84
298.15 K, x1 = 1	1053.85	1544	2.76
303.15 K, x1 = 0.0159	1092.06	1473	1.85
303.15 K, x1 = 0.0656	1090.58	1477	1.99
303.15 K, x1 = 0.1182	1088.73	1480	2.12
303.15 K, x1 = 0.1693	1086.54	1484	2.23
303.15 K, x1 = 0.2333	1083.95	1488	2.37
303.15 K, x1 = 0.2857	1081.41	1492	2.47
303.15 K, x1 = 0.3408	1078.78	1495	2.56
303.15 K, x1 = 0.3877	1076.45	1498	2.63
303.15 K, x1 = 0.4358	1074.03	1501	2.7
303.15 K, x1 = 0.5129	1070.25	1505	2.78
303.15 K, x1 = 0.5506	1068.52	1507	2.81
303.15 K, x1 = 0.5959	1066.19	1509	2.83
303.15 K, x1 = 0.6852	1062.02	1512	2.82
303.15 K, x1 = 0.7487	1059.21	1513	2.8
303.15 K, x1 = 0.8156	1056.44	1514	2.75
303.15 K, x1 = 0.8651	1054.43	1515	2.65
303.15 K, x1 = 0.9231	1052.36	1515	2.55
303.15 K, x1 = 0.961	1051.09	1515	2.48
303.15 K, x1 = 1	1049.87	1514	2.37
308.15 K, x1 = 0.0159	1085.87	1461	1.71
308.15 K, x1 = 0.0656	1084.72	1465	1.84
308.15 K, x1 = 0.1182	1083.28	1469	1.96
308.15 K, x1 = 0.1693	1081.2	1473	2.07
308.15 K, x1 = 0.2333	1078.93	1479	2.2
308.15 K, x1 = 0.2857	1076.51	1483	2.29
308.15 K, x1 = 0.3408	1073.96	1487	2.39
308.15 K, x1 = 0.3877	1071.75	1491	2.45
308.15 K, x1 = 0.4358	1069.43	1494	2.51
308.15 K, x1 = 0.5129	1065.68	1499	2.57
308.15 K, x1 = 0.5506	1063.92	1501	2.59
308.15 K, x1 = 0.5959	1061.71	1504	2.6
308.15 K, x1 = 0.6852	1057.63	1507	2.59
308.15 K, x1 = 0.7487	1054.92	1509	2.55
308.15 K, x1 = 0.8156	1052.23	1511	2.49
308.15 K, x1 = 0.8651	1050.25	1511	2.39
308.15 K, x1 = 0.9231	1048.26	1511	2.27
308.15 K, x1 = 0.961	1046.98	1510	2.19
308.15 K, x1 = 1	1045.81	1508	2.06
313.15 K, x1 = 0.0159	1081.32	1443	1.61
313.15 K, x1 = 0.0656	1080.52	1447	1.73
313.15 K, x1 = 0.1182	1079.21	1452	1.85
313.15 K, x1 = 0.1693	1077.1	1457	1.96
313.15 K, x1 = 0.2333	1074.98	1463	2.08
313.15 K, x1 = 0.2857	1072.77	1468	2.16
313.15 K, x1 = 0.3408	1070.09	1472	2.26
313.15 K, x1 = 0.3877	1067.96	1476	2.31
313.15 K, x1 = 0.4358	1065.48	1481	2.36
313.15 K, x1 = 0.5129	1061.68	1486	2.41
313.15 K, x1 = 0.5506	1060.02	1489	2.43
313.15 K, x1 = 0.5959	1057.67	1491	2.44
313.15 K, x1 = 0.6852	1053.56	1495	2.41
313.15 K, x1 = 0.7487	1050.78	1497	2.37
313.15 K, x1 = 0.8156	1048.06	1497	2.29
313.15 K, x1 = 0.8651	1045.97	1496	2.18
313.15 K, x1 = 0.9231	1044.14	1495	2.06
313.15 K, x1 = 0.961	1042.88	1493	1.97
313.15 K, x1 = 1	1041.7	1490	1.83
